Experimental data: patent US7335756B2, “Retinoic acid metabolizing cytochrome P450” (Cytochroma Inc., priority 2001, dated 2008)
pIC50: −log10 of the molar value. Values joined by “and” are separate entries in the source; they are usually repeats but may differ in a detail not shown here. Equal entries are not always repeated. Where two headings read alike, the source gives them in different places.

Experiments:
P450RAI-3 [1] = biological target: T1, P450RAI-3 (Homo sapiens, UniProt Q6V0L0, F447L); test: [3H]-RA-metabolism inhibition (substrate competition) in P450RAI-3 stable transfected Hela cells; format: cell-based; design: expressed in transfected cells; conditions: 2 nM [3H]-RA
T1 sequence (Q6V0L0 1-522 F447L): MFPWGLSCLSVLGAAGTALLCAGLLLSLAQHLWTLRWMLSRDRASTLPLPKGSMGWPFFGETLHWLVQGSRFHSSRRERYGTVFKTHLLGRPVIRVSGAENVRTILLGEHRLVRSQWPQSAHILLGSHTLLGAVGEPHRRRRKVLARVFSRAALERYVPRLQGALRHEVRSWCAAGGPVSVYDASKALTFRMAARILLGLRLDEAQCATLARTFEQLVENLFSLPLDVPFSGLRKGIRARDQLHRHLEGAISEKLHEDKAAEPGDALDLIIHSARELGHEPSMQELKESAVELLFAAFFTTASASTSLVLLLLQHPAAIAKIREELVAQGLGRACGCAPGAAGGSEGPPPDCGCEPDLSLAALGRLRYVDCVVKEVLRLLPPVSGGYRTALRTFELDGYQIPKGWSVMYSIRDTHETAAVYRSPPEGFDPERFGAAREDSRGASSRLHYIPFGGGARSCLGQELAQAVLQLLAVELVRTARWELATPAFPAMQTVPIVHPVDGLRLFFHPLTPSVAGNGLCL
Method: (§1) The purpose of these experiments is to determine the specific substrates for P450RAI-3. […] The RA metabolism reaction was started by the addition of 50 ul of [^3H]-RA solution (20000 cpm, 2 nM final concentration). Cells were incubated for 3 hours in a humidified CO2 incubator at 37 degrees Celsius. The reaction was stopped by the addition of 5 ul of 10% acetic acid. Organic and aqueous soluble radio-labelled metabolites were extracted using the Bligh-Dyer procedure.

P450RAI-3 [2] = biological target: T1, P450RAI-3; test: ATRA / 9-cis-RA metabolism in pcDNA-P450RAI-3 transfected Cos-1 cells (Bligh-Dyer, HPLC); format: cell-based; design: expressed in transfected cells; host or cells: COS-1 (transient, pcDNA-P450RAI-3, Fugene); conditions: 2 nM radio-labeled substrate, 3 hours
Method: Mammalian Cos-1 cells were transfected with either pcDNA-P450RAI-3 or pcDNA-control vector using Fugene™ (Roche diagnostic) according to the manufacturers directions. After 48 hours post-tranfection, cells were washed with PBS and assessed for ATRA-metabolism activity as described Briefly, transfected cells were incubated with radio-labeled ^3[H]-ATRA (18000 cpm, 2 nM) for 3 hours. Organic and Water-soluble metabolites were extracted using Bligh-Dyer procedure and radioactivity counted (FIG. 10).
HPLC analysis of the organic metabolites: the Bligh-Dyer organic button-layer was dried out and residues were suspended in HPLC solvent and then analyzed by HPLC as described in [White et al, PNAS, vol 97, pg 6403-6408], FIG. 11.
Mammalian Cos-1 cells were transfected with either pcDNA-P450RAI-3 or pcDNA-control vector according to the manufacturers directions using Fugene (Roche). After 48 hours post-tranfection, cells were washed with PBS and assessed for 9-cis-RA-metabolism activity as described using Bligh-Dyer procedure. Briefly, transfected cells were incubated with radio-labeled ^3[H]-9-cis-RA (38000 cpm, 2 nM) for 3 hours. Organic and Water-soluble metabolites were extracted using Bligh-Dyer procedure and radioactivity counted, FIG. 19.

P450RAI-3 [3] = biological target: T1, P450RAI-3; test: [3H]-RA-metabolism inhibition, transient Cos-P450RAI-3 cell-based assay; design: expressed in transfected cells; host or cells: COS-1 (transient, pcDNA-P450RAI-3, Fugene); conditions: at lower concentrations
Method: as §1

CYP26-B [4] = biological target: T2, CYP26-B (Homo sapiens, UniProt Q9NR63); test: [3H]-RA-metabolism inhibition in Sf9-Bac-CYP26-B insect microsomes; format: biochemical; conditions: at much higher concentrations
T2 sequence (Q9NR63 1-512): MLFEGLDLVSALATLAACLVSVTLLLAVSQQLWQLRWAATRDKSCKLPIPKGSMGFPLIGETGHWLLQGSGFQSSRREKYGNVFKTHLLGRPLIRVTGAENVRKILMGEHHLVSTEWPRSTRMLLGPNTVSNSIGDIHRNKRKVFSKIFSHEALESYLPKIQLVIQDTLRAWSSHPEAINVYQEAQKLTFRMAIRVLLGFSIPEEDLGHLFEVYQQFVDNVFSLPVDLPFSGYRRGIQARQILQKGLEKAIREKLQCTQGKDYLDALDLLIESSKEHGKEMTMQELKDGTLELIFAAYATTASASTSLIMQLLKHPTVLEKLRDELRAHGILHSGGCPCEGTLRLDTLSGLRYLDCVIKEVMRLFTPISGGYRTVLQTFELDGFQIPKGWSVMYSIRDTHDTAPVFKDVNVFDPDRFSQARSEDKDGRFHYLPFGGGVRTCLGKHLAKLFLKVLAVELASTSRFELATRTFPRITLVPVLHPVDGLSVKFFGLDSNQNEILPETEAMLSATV
Method: (§2) RA-metabolism activity was assessed using RA-metabolism microsomes-based assay and Bligh Dyer extraction as follows: Using an automatic repeating-pipette, gently thawed and homogenized microsomes were plated in a 48-well plate in final volume of 150 μl of storage buffer containing 0.5 mg/ml BSA. At indicated concentration 2 μl of compound solution was added to the assay and 2 μl of DMSO was added to MS control (quadruplet) and No-MS control. 50 μl of [^3H]-RA solution (30,000 cpm, 2 nM final concentration) was added. […] After 1-hour incubation the reaction was stopped by adding 5 μl of 10% acetic acid. Organic and aqueous soluble radio-labelled metabolites were extracted using the Bligh-Dyer procedure. Saturated activity obtained in presence of NADPH at 5 μg of microsomes, FIG. 14.

P450RAI-3 [5] = biological target: T1, P450RAI-3; test: ATRA and 9-cis-RA binding assay, Sf9-Bac-P450RAI-3 insect microsomes; conditions: for Kd: Table 4 prints no unit
P450RAI-3 [6] = biological target: T1, P450RAI-3; test: LC/MS analysis of ATRA and 9-cis-RA metabolism in Hela-P450RAI-3 stable cells; conditions: 5 hours
Method: After 5 hours incubation at 37° C., cells were acidified with acetic acid and total retinoids were extracted using Ethyl acetate method. The organic upper layer was pooled and evaporated in speed-vacuum, and dried residues were dissolved in HPLC mobile solvent and analyzed in LC/MS.
The HPLC system consisted of a waters alliance 2690 separations module. Chromatography was obtained on an Eclipse X DB-C18 reverse phase column (5 um, 2.1×150 mm from HP). A gradient elution program was used using acetonitrile, water and 10% acetic acid. The flow was held at 0.2 ml/min.
Mass Spectrometry condition used for this work consisted of a Micro-mass Quatro Ultima Tandem triple quadruple mass spectrometer equipped with electrospray interface (ESI) and operated in a negative mode.

CYP26-A = biological target: T3, CYP26-A (Homo sapiens, UniProt O43174, E104D/H105D/L421A/M420S); test: 9-cis-RA binding assay, CYP26-A; conditions: substrate 0.05 nM to 1000 nM, linear, Kd not determinable
T3 sequence (O43174 1-497 E104D/H105D/M420S/L421A): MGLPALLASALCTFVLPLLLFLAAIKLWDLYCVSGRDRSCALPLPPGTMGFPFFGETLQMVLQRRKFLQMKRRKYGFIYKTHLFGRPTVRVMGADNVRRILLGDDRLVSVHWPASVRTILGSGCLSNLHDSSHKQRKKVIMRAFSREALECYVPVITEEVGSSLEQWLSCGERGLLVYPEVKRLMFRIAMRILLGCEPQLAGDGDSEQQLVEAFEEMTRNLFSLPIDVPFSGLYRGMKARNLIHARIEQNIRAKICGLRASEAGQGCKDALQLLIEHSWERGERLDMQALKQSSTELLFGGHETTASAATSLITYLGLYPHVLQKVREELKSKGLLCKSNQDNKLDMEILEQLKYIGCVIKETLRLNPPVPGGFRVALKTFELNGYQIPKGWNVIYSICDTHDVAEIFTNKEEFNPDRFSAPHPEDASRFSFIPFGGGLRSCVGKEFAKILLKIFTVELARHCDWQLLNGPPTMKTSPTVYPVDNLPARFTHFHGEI

CYP26-B [7] = biological target: T2, CYP26-B; test: ATRA and 9-cis-RA binding assay, CYP26-B microsomes; design: made in house; host or cells: HeLa cells stably expressing CYP26-B, microsomal fraction; conditions: substrate 0.05 nM to 1000 nM, linear, Kd not determinable
CYP26-B [8] = biological target: T2, CYP26-B; test: [3H]-RA-metabolism inhibition in mammalian microsomes from stable Hela-CYP26-B cells; format: biochemical; design: made in house; host or cells: HeLa cells stably expressing CYP26-B, microsomal fraction
Method: as §2
(§3) Microsomes prepared from either stable Hela-CYP26-B or transient P450RAI-3-transfected Cos cells were used.

CYP26-B [9] = biological target: T2, CYP26-B; test: [3H]-RA-metabolism inhibition, transient Cos-CYP26-B cell-based assay; conditions: at lower concentrations
P450RAI-3 [10] = biological target: T1, P450RAI-3; test: [3H]-RA-metabolism inhibition in mammalian microsomes from transient P450RAI-3-transfected Cos cells; format: biochemical; design: expressed in transfected cells; host or cells: COS-1 (transient, pcDNA-P450RAI-3, Fugene)
Method: RA-metabolism activity was assessed using RA-metabolism microsomes-based assay and Bligh Dyer extraction as follows: Using an automatic repeating-pipette, gently thawed and homogenized microsomes were plated in a 48-well plate in final volume of 150 μl of storage buffer containing 0.5 mg/ml BSA. At indicated concentration 2 μl of compound solution was added to the assay and 2 μl of DMSO was added to MS control (quadruplet) and No-MS control. 50 μl of [^3H]-RA solution (30,000 cpm, 2 nM final concentration) was added. The microsomes assay with the compounds and the [^3H]-ATRA were incubated first for 10 min at 37° C., and then the reaction started by adding 20 μl of NADPH solution (or 1 mM final). After 1-hour incubation the reaction was stopped by adding 5 μl of 10% acetic acid. Organic and aqueous soluble radio-labelled metabolites were extracted using the Bligh-Dyer procedure. Saturated activity obtained in presence of NADPH at 5 μg of microsomes, FIG. 14.
as §3

P450RAI-3 [11] = biological target: T1, P450RAI-3; test: [3H]-RA-metabolism inhibition in Sf9-Bac-P450RAI-3 insect microsomes; format: biochemical; conditions: 2 nM [3H]-RA, NADPH, 1 hour, read-out: ID50 (nM) Sf9-P450RAI-3
Method: Microsomes from P450RAI-3 and CYP26B infected Sf-9 cells were made as follows: exponentially growing cells were harvested, washed with ice-cold PBS, counted then homogenized and sonicated in lysis buffer containing protease inhibitors cocktail (10^8 cells par 5 ml lyses buffer). Since P450RAI-3 is a microsomal cytochrome, it preferably uses NADPH cytochromic P450 reductase and a flavoprotein for activity. The microsomes were isolated by differential centrifugations (10 min at 800×g, than 10 min at 10,000×g and finally the postmitichondirial supernatant was centrifuged at 100,000×g for 60 min using ultracentrifuge (Beckman). The microsomal pellet was isolated and homogenized gently in the storage buffer containing protease inhibitors cocktail. Protein concentration in the microsomal preparation was determined using a […] reaction assay kit with BSA as standards (Pierce). The absorbance at 562 nm of standards (BSA at 1, 0.5, 0.25, 0.125, and 0.0625 mg/ml) and 3 dilutions of microsomes samples (⅕, 1/10 and 1/20) was determined using an automatic microplate reader (μQuant, BioTek instruments Inc.). The protein concentration directly calculated by the software (KCJunior). […] Microsomes were assessed for P450 content by carbon monoxide assay and total P450 content was determined at 3 nmol/ml. […]

CC1=C(/C=C/C(C)=C/C=C/C(C)=C/CO)C(C)(C)CCC1 [Retinol]
substrate for CYP26-C (P450RAI-3 [1]): not substrates

CC1=C(/C=C/C(C)=C/C=C/C(C)=C/C=O)C(C)(C)CCC1 [Retinal]
substrate for CYP26-C (P450RAI-3 [1]): not substrates

CC1=C(/C=C/C(C)=C\C=C\C(C)=C\C(=O)O)C(C)(C)CCC1 [9-cis-RA, 9-cis-retnoic acid]
metabolism by P450RAI-3 (P450RAI-3 [2]): converted 9-cis-RA to the hydoxy and oxo-metabolites and to more polar water-soluble metabolites
competition / inhibition of P450RAI-3 (P450RAI-3 [3]): competed only for P450RAI-3
competition for CYP26-B (CYP26-B [4]): very weak 9-cis-RA competition
Kd (P450RAI-3 [5]; read-out: Kd, substrate binding to P450RAI-3, insect microsomes, nM): 69 nM
binding to P450RAI-3 microsomes (P450RAI-3 [5]; substrate 0.05 nM to 1000 nM): Very good binding
metabolites formed by P450RAI-3 (P450RAI-3 [6]): hydroxy and oxo-metabolites
binding to CYP26-A (CYP26-A): weak binding
binding to CYP26-B (CYP26-B [7]): weak binding

CC1=C(/C=C/C(C)=C/C=C/C(C)=C\C(=O)O)C(C)(C)CCC1 [13-cis-RA]
competition for CYP26B (CYP26-B [8]): did not compete at lower concentrations
competition / inhibition of P450RAI-3 (P450RAI-3 [3]): not a substrate
competition / inhibition of CYP26-B (CYP26-B [9]): not a substrate

CC(=O)N1CCN(c2ccc(OCC3COC(Cn4ccnc4)(c4ccc(Cl)cc4Cl)O3)cc2)CC1 (stereo not drawn) [Ketoconazole, ketoconazole]
IC50 (P450RAI-3 [10]; read-out: ID50 (nM) P450RAI-3): 72000 nM
pIC50 (P450RAI-3 [10]; read-out: ID50 P450RAI-3): 4.15
pIC50 (P450RAI-3 [1]; read-out: ID50, competition for P450RAI-3 [3H]-RA metabolism): 4.15
competition / inhibition of P450RAI-3 (P450RAI-3 [3]): weak inhibitor
Kd (P450RAI-3 [5]; Kd, competition of ATRA binding to P450RAI-3, ketoconazole up to 100 μM, μM): 70500 nM and 75000 nM
inhibition at 10 µM (P450RAI-3 [5]; read-out: inhibition of ATRA binding to P450RAI-3): 15%
competition / inhibition of CYP26-B (CYP26-B [9]): inhibited
IC50 (P450RAI-3 [11]): > 10000 nM
